{"source": "patent US20140272949A1", "about": "“Methods for Fully Segregating Recombinant Marine Cyanobacteria” (ALGENOL BIOFUELS INC., priority 2013, published 2014)", "test_system": "PCC7002:pAB125 clones", "experiment": "Growth on low salt spectinomycin segregation plates", "type": "cell-based, Synechococcus sp. strain PCC 7002", "experimental": "1 mL of the culture was washed once in BG-11 (2.500×g, 10 min spin) and streaked for single colonies on low salt media (BG-11+vB12) plates with various spectinomycin concentrations (sp15, 30, 60, 120, 240, 300, 360, and 500 μg/mL). These segregation plates were incubated at room temperature with low light overnight and then at 37° C. with continuous light or with a 12 h/12 h light/dark cycle for approximately 2 weeks.", "data": [{"compound": "CN[C@@H]1[C@H](O)[C@H](NC)[C@H]2O[C@@]3(O)C(=O)C[C@@H](C)O[C@H]3O[C@@H]2[C@H]1O", "note": "[spectinomycin]", "values": [{"measurement": "growth on low salt plates", "setting": "240 and 300 mg/L of spectinomycin, BG-11+vB12, about 2 weeks", "result": "single colonies formed"}, {"measurement": "growth on low salt plates", "setting": "higher spectinomycin concentrations (360, 500 μg/mL), BG-11+vB12", "result": "No colonies were found"}, {"measurement": "growth on low salt plates", "setting": "spectinomycin at 15 to 120 mg/L, BG-11+vB12, about 2 weeks", "result": "abundant growth"}]}]}
